Like-named read-outs stand apart in the source and are kept apart here.
Experiments:
[1] = rats, cited from earlier work
[2] = patients, curative pentasaccharide treatment; cited from earlier work
[3] = Fondaparinux overdose and pharmacokinetics in mice; assay type: in vivo; conditions: mouse
Protocol: 1—Determination of the Doses of Fondaparinux Inducing an Overdose in Mice Published data concerning fondaparinux pharmacokinetics in rats (Herbert J 4197), or experimental determination of fondaparinux pharmacokinetics in mice are used to develop the model.
To induce an overdose, a 3 fold doses (300 nmol/kg, or 0.52 mg/kg) is tested. At this dose, the fondaparinux plasma concentration is about 3.5 to 4 nmol/ml (or 6 to 7 mg/L). An anti-Xa activity is determined to ensure that an overdose is obtained.
Anti FXa activity measurements is performed as previously described using a Stachrom Heparin® kit on a STA (Stago, France) or a Rotachrom Heparin® kit with procedure adapted for measurement in microplate reader (Dynatech MR 5000). A calibration curve with pentasaccharide is performed, allowing the expression of the results in nmol/ml (or in mg/L) of plasma.
In mouse, an overdose of fondaparinux is observed at 300 nmol/kg (or 0.52 mg/kg) but maximal concentration in plasma is observed less than 15 min after sub-cutaneous injection.

[4] = Heparin affinity column elution with NaCl gradient; assay type: binding
Protocol: Conditioned media are thawed, pooled, salt concentration adjusted to 0.4 M NaCl and then applied on an heparin immobilized column (Hitrap Heparin 5 ml or Heparin-sepharose CL6B 50 ml, GE Biological) equilibrated with 10 mM Tris, or with 20 mM phosphate buffer, 0.4 M NaCl and 0.1 mM EDTA, pH 7.4. The bound proteins are eluted in the same buffer with a gradient from 0.4 M to 2 M NaCl. The fractions eluted from 0.8 M NaCl and more contained only wild type antithrombin or mutated antithrombins with high heparin affinity. […] The collected fractions are pooled and the salt concentration is decreased either by over night dialysis against 10 mM Tris, or 20 mM phosphate, and 0.1 M NaCl, pH 7.4 at 4° C. or applied on an HiPrep 26/10 desalting column equilibrated with 10 mM Tris, or 20 mM phosphate, and 0.1 M NaCl, pH 7.4. The antithrombin is then concentrated by ion exchange chromatography using a “Resource Q” 1 ml column (GE, Biological) equilibrated with 10 mM Tris, or 20 mM phosphate, and 0.1 M NaCl, pH 7.4 and eluted in the same buffer with a NaCl gradient from […] to 0.5 M or 20 mM to 0.5 M. The antithrombin concentration in each elution fraction is estimated by absorbance at 280 nm with an absorption coefficient ε=0.65 g^−1·l·cm^−1 and the integrity of purified wild type antithrombin or mutated antithrombins is tested by western blotting using the same couple of antibodies as described before, and electrophoresis on 10% acrylamide/bisacrylamide gel in native and denaturing conditions followed by coomassie brilliant blue R-250 staining (FIG. 4). Then, the antithrombin preparation is aliquoted and stored at −80° C. before use for functional assay. The same procedure is used to purify plasma antithrombin (used as internal reference) from human plasma.

For `CO[C@H]1O[C@H](COS(=O)(=O)O)[C@@H](O[C@@H]2O[C@@H](C(=O)O)[C@@H](O[C@H]3O[C@H](COS(=O)(=O)O)[C@@H](O[C@@H]4O[C@H](C(=O)O)[C@@H](O[C@H]5O[C@H](COS(=O)(=O)O)[C@@H](O)[C@H](O)[C@H]5NS(=O)(=O)O)[C@H](O)[C@H]4O)[C@H](OS(=O)(=O)O)[C@H]3NS(=O)(=O)O)[C@H](O)[C@H]2OS(=O)(=O)O)[C@H](O)[C@H]1NS(=O)(=O)O` [fondaparinux], the Tmax ([1]; intra-venous injection of 100 nmol/kg (or 0.17 mg/kg)) is given as 5 min, the Tmax ([1]; subcutaneous injection of 100 nmol/kg (or 0.17 mg/kg)) is given as 30 min and the “minimal equilibrium concentration in plasma” value [2] is given as 0.46 to 0.62 mg/L. The “optimal equilibrium concentration in plasma” value [2] was 1.20 to 1.26 mg/L and the “dose at which an overdose is observed” value [3] was 0.52 mg/kg.
In the case of “AT-N135Q: human antithrombin with substitution of the amino acid at position 135 by Glutamine”, the “elution from heparin affinity column compared with wild type antithrombin” value [4] is reported as “higher ionic strength than wild type antithrombin”.

Source: patent US8741844B2, “Use of mutated antithrombins for treating or preventing coagulation disorders” (Universite Paris-Sud XI, priority 2007, dated 2014)
